# Molecular target: WT PA channel (Bacillus anthracis, UniProt P13423)
# Type: biochemical
# Sequence of WT PA channel (P13423 197-764 limits assumed): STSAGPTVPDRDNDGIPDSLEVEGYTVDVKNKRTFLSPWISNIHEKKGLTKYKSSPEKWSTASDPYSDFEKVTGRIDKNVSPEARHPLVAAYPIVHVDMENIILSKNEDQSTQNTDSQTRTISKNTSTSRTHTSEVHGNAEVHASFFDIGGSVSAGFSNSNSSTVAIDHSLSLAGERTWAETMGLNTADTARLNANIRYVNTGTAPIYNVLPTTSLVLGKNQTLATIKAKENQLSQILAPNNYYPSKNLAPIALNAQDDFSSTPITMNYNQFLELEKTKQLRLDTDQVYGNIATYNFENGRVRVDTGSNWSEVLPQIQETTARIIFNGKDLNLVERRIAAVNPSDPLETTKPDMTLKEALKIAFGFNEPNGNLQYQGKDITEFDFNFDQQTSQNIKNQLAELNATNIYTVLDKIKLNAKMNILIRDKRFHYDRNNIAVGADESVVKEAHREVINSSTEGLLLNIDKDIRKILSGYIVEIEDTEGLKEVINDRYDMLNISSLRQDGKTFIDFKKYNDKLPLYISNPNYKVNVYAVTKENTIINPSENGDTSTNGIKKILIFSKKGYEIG
substance,measurement,setting,value
L-Trp,duration of the I2/B oscillation among guest–host peptides,,longest durations
same,oscillation between conductance states during translocation,,exhibited an oscillation between the I2 and B
same,relative rate of dissociation to the cis side (in words),pH 5.6,dissociated the fastest
same,translocation (in words),pH 5.6,translocated the fastest
same,"translocation faster than D,L-Trp and D-Trp peptides",pH 5.6,10 fold
same,translocation faster than the HBS stapled peptide,pH 5.6,~ 100 fold
D-Trp,dissociation to the cis side slower than L-Trp,pH 5.6,~ 20 fold
same,relative rate of dissociation to the cis side (in words),pH 5.6,dissociated the slowest
same,translocation slower than L-Trp,pH 5.6,~ 10 fold

# — publication PMC5562545 (Journal of molecular biology, 2017)
